Test results: patent US20260098017A1, “NOVEL AROMATIC RING DERIVATIVE CONTAINING AMIDE SUBSTITUTION AND USE THEREOF” (TIANJIN PHARMACEUTICAL BIOTECHNOLOGY CO., LTD., priority 2022, published 2026)
Marks after values point to notes of the source that are not given here.

Legend:
[1] = system: imiquimod-induced mouse psoriasis-like model; test: Imiquimod-induced mouse psoriasis-like model (PASI score); type: in vivo; settings: oral gavage, 10 mg/kg, 25 mg/kg, 50 mg/kg, bid, compared with the model group
[2] = system: imiquimod-induced mouse psoriasis-like model; test: as above; type: in vivo
Text: The efficacy of the compounds according to the present invention in an imiquimod-induced mouse psoriasis-like model could be assessed using the following method:
Sample preparation: with reference to the preparation of commercially available Benvitimod cream. The compound (the compound of Example 3), the oil phase (hexadecanol, vaseline, liquid paraffin, and glyceryl mono- and distearate), the aqueous phase (propylene glycol, Tween 80, and water), and the appropriate additive (ethylparaben) were mixed, and subjected to vacuum emulsification to prepare a 1% cream sample.
A test site on the back of the animal was shaved to expose an area measuring of 2×3 cm^2. Imiquimod ointment was continuously applied to the back skin of the mice for 6 days to establish a mouse psoriasis model. From day 1 to day 6, various groups of animals were administered respectively according to the experimental protocol.
At day 7, the severity of skin inflammation was assessed and scored using a 5-point scale (0-4) (PASI score):
Skin thickness: 0: the skin was smooth without wrinkles; 1: the skin at the edge of the drug application area had slight wrinkles; 2: the skin in the drug application area all had slight wrinkles; 3: the degree of wrinkles in the drug application area was further deepened; and 4: on the basis of the score of 3, the mouse had the conditions of weight loss or poor state and the like. […]

hERG channel = target: T1, hERG channel (Homo sapiens, UniProt Q12809); test: hERG potassium channel inhibition assay (manual patch clamp); type: cell-based; settings: HEK-293 cell line stably expressing hERG channel, at the tested concentrations
T1 construct: expressed in transfected cells; host or cells: HEK-293
Experimental: Instrumentation: HEKA EPC 10 patch clamp amplifier.
Method: in this experiment, the blocking effect of the compounds on the current of the HEK-293 cell line stably expressing hERG channel was measured using the manual patch clamp technique, and the risk of the compounds on the inhibition of cardiac hERG potassium channel was assessed by fitting the concentration effect relationship.
Procedure: in the patch clamp operation, firstly, a capillary glass tube was pulled into a recording electrode using a microelectrode puller, then an electrode filled with intracellular solution was mounted into a microelectrode holder. A microelectrode manipulator was operated under an inverted microscope to immerse the electrode into an extracellular solution and the electrode resistance (Rpip) was recorded. Then, the electrode was slowly brought into contact with the cell surface, and a negative pressure was applied for suction to form a GΩ seal. At this point, a fast capacitance compensation was performed, and a negative pressure was continuously applied to suck and break the cell membrane to form a whole cell recording mode. Finally, a slow capacitance compensation was performed and experimental parameters including series resistance (Rs) and the like were recorded. No leakage compensation was performed. When the hERG current recorded by the whole cell was stable, the administration of drugs commenced, and each drug concentration acted for about 5 min (or until the current stabilization) before detecting the next concentration. A cover glass covered with cells was placed in a recording bath under an inverted microscope, the blank control extracellular solution and the working solution of the compounds to be tested sequentially flowed through the recording bath from low concentration to high concentration by using gravity perfusion to act on the cells, and solution exchange was performed using a peristaltic pump during recording. The current measured by each cell in the extracellular solution without the compound served as its own control group. Each concentration was independently assessed twice. All electrophysiological tests were performed at room temperature.
Data Analysis: firstly, the tail current (Peak tail currentcompound) after the action of each drug concentration and the blank control tail current (Peak tail currentcontrol) were normalized, then the inhibition rate
corresponding to each drug concentration was calculated, and the mean (Mean), standard deviation (SD) and standard error (SE) of the inhibition rate corresponding to each concentration were calculated, with data expressed as Mean±SE. The calculation of IC50 value and the fitting of dose-response curve for the compound were performed using GraphPad Prism software.

JAK2 JH1 kinase = JAK2 JH1 kinase (Homo sapiens, UniProt O60674); test: JAK2 JH1 enzyme assay in vitro (TR-FRET); type: biochemical; settings: read-out: JAK 2 JH1 IC50
[3] = system: mouse asthma model induced by OVA; test: Mouse asthma model induced by OVA: inflammatory cells in bronchoalveolar lavage fluid; type: in vivo
Experimental: The efficacy of the compounds according to the present invention in a mouse asthma model induced by OVA could be assessed using the following method:
Test sample: the compound of Example 3 was weighed accurately, and dissolved in DMSO to prepare a solution at a concentration of 2 mg/mL.
30 female BALB/c mice were adaptively fed. After one week, 10 mice were randomly taken out and fed as a blank control group, and 20 mice were selected to establish the asthma model. The model mice were intraperitoneally injected with 0.2 mL of sensitizing solution for sensitization respectively on 0, 7 and 14 days. The sensitization solution contained 50 μg of OVA and 2 mg of Al(OH)3. The blank control group received an equivalent volume of physiological saline.
From day 21 to day 23 after sensitization, the mice in the model group and the administration group were subjected to nebulization stimulation with 5% OVA for 30 min, and the mice in the blank control group received nebulization with physiological saline for the same duration.
30 min before daily stimulation of the mice, 50 μl of physiological saline was administered endotracheally to mice in the blank control and model groups, and 50 μl of the corresponding drug was administered endotracheally to mice in the Example 3 compound group, once daily for 3 consecutive days.
After the airway hyperresponsiveness measurement, the mice were euthanized by cervical dislocation and fixed on a dissecting tray. The abdomens and thoracic cavities of the mice were opened, and the neck skin and excess tissues were excised to expose the mouse trachea. A small incision was made on the transverse axis of the trachea with small scissors, a pre-prepared 1 mL syringe needle was inserted therein, and the needle was fixed with surgical thread. 0.5 mL of pre-cooled phosphate-buffer solution (PBS) was aspirated with a 1 ml syringe and slowly injected into the lungs of the mice, followed by slow withdrawal. Each mouse was lavaged once, and a total of about 0.4 mL of lavage fluid was collected. The number of inflammatory cells in the bronchoalveolar lavage fluid was measured by a cell counter.
Statistical analysis was conducted using SPSS software, Measurement data were expressed as mean±standard deviation. One Way ANOVA was used for inter-group comparisons, LSD test was used for those with homogeneous variance, and Dunnett-t test was used for those with heterogeneous variance. Differences were statistically significant with P<0.05.

[4] = 2 mg/mL, 50 μL endotracheally, once daily for 3 days

T1 sequence (Q12809 whole entry): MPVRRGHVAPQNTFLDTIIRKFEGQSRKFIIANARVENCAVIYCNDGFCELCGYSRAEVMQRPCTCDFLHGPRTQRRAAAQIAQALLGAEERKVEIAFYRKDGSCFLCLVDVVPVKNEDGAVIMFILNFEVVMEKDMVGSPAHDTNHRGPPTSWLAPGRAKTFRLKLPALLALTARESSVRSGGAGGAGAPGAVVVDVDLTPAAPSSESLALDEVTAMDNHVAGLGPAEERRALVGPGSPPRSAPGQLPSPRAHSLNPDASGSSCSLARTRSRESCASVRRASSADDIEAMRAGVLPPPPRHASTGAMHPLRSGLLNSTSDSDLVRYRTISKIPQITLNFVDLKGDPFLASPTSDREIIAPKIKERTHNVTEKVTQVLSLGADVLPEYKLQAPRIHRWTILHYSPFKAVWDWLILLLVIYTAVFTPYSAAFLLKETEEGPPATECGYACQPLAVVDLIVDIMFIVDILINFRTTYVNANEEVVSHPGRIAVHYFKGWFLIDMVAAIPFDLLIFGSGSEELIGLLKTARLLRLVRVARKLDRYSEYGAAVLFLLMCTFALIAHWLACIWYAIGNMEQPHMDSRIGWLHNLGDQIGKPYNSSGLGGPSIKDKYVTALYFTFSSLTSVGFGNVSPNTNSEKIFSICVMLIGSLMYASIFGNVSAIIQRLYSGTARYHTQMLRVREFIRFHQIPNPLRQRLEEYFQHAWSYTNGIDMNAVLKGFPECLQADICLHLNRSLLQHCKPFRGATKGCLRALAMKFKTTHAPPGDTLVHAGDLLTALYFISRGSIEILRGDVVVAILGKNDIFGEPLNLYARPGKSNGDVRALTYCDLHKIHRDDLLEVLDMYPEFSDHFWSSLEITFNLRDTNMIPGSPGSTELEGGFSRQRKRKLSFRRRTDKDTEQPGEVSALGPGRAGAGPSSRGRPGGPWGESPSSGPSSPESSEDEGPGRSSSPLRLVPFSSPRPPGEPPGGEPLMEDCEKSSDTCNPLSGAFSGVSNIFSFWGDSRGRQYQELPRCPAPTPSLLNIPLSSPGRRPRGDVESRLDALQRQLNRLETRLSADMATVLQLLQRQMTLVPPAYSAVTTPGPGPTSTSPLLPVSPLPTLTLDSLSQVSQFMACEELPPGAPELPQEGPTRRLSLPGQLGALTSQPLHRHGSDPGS
JAK2 JH1 kinase, sequence (O60674 849-1124 limits assumed): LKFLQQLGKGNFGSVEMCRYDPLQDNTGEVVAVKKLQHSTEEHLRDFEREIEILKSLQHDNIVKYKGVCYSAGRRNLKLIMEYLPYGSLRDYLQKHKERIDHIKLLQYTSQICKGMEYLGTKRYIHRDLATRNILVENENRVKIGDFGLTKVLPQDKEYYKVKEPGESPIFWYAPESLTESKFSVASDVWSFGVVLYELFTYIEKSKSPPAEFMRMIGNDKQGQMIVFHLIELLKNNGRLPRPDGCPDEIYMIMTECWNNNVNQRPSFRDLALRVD

Q: For [2H]C([2H])([2H])NC(=O)c1nnc(NC(=O)C2CC2)cc1Nc1cccc(C(=O)Nc2cccc(C)c2)c1OC [Example 3], which “Improvement of psoriasis symptoms by oral administration” value [1] is on record?
A: The value was “effectively improve psoriasis symptoms”.

Q: What about the “Percentage reduction in PASI score %” value ([2]; day 7, 1% cream, 100 mg, topical, qd, day 1 to 6) of the same compound?
A: Its value is 40.7*** %.

Q: And the “Improvement of psoriasis symptoms” value ([2]; topical cream, compared with the model group)?
A: Its value is “effectively improved psoriasis symptoms”.

Q: And the hERG inhibition (hERG channel)?
A: The hERG inhibition was “no significant inhibition”.

Q: And the IC50 (JAK2 JH1 kinase)?
A: The IC50 was > 10 µM.

Q: And the “Number of inflammatory cells: Leukocyte” value [3, 4]?
A: Its value is 1,241.7 ± 618.1 ×10^3.

Q: And the “Number of inflammatory cells: Lymphocyte” value [3, 4]?
A: Its value is 791.7 ± 524.9 ×10^3.

Q: And the “Number of inflammatory cells: Monocyte” value [3, 4]?
A: Its value is 58.3 ± 37.0 ×10^3.

Q: And the “Number of inflammatory cells: Neutrophil” value [3, 4]?
A: The value was 391.7 ± 206.3 ×10^3.

Q: And the “Effect on number of inflammatory cells (white blood cells, lymphocytes) compared with the model group” value ([3]; pre-administration before stimulation)?
A: The value was “significantly reduce the number of inflammatory cells”.
